This is an account of results in patent publication US20230088704A1, “A PHARMACEUTICAL COMBINATION FOR THE TREATMENT OF A CANCER” (ABILITY PHARMACEUTICALS S.L., priority 2020, published 2023).

For one assay, the system named is JJN-3 cells. Briefly: Cell viability (MTT) and combination index, ABTL0812 with bortezomib. Format: cell-based. The conditions noted are these: ABTL0812 5 μM, Bortezomib 0.5 nM, alone or combined; 48h. How it is done: (§1) Methods: JJN-3 and OPM2 cells were seeded in 24-well plates and treated with ABTL0812 (5 μM), bortezomib (0.5 and 1 nM respectively) or a combination of both drugs and left in the incubator for 48h (0.5% FBS). Cell viability was studied by the MTT assay and combination index was determined to evaluate a possible synergism.
(§2) Cell viability was evaluated in all cases by MTT assay and the Combination Index (CI), to evaluate synergism, was calculated according to the method of Chou and Talalay (Chou 2006; Chou 2010), as follows: CI=(D)1/(Dx)1+(D)2/(Dx)2, where CI<1, =1, and >1 indicate synergism, additive effect, and antagonism, respectively. In the denominator, (Dx)1 is for D1 “alone” that inhibits a system x %, and (Dx)2 is for D2 “alone” that inhibits a system x %.

The test system of a further assay is OPM2 cells. The description is as above. Format: cell-based. The conditions noted are these: ABTL0812 5 μM, Bortezomib 1 nM, alone or combined; 48h. How it is done: as §1, §2
The subject of assay [1] is Ishikawa cells. Format: in vivo. The conditions noted are these: ABTL0812 oral 120 mg/kg/day; Doxorubicin 5 mg/kg i.p. once a week. On the procedure: Methods: Mice were injected with 4×10^6 Ishikawa cells in one flank to induce tumor formation. […] ABTL0812 was administered by the oral route at 120 mg/kg/day. Doxorubicin 5 mg/kg was administered intra-peritoneally once a week. Tumor volume and body weight were monitored 3 times a week.

The subject of assay [2] is Ishikawa cells. In words: Human endometrial cancer xenograft, ABTL0812 with olaparib. Type of assay: in vivo. The conditions noted are these: ABTL0812 oral 120 mg/kg/day; Olaparib oral 50 mg/kg/day. How it is done:
Methods: Mice were injected with 4×10^6 Ishikawa cells in one flank to induce tumor formation. […] Olaparib was administered by the oral route 50 mg/kg/day. Tumor volume and body weight were monitored 3 times a week.

A further assay deals with PDL1. In words: PDL1 expression in cancer cells by flow cytometry (Example 6.2). Format: cell-based, human. The conditions noted are these: Panc-1 cells; ABTL0812 50 μM, IFNγ 2.5 ng/ml or both. On the procedure:
Methods: Human cancer cell lines were incubated with 100 μM of ABTL0812 during 48 hours and collected for staining with anti-PDL1 antibody labeled with a fluorophore. After staining of cells with anti-PDL1 antibody, cells were run on Flow Cytometry (Facs Canto) to analyzed PDL1 levels in cancer cells. Additionally, we incubated Panc-1 cells with ABTL0812 (50 μM), IFNγ (2.5 ng/ml), a master regulator of PDL1 expression or a combination with both. Then, cells were collected, stained with anti-PDL1 antibody and analyzed by Flow Cytometry for the expression of PDL1.

For assay [3], the system named is Ishikawa cells. Briefly: Human endometrial cancer xenograft, ABTL0812 with bevacizumab. Format: in vivo. The conditions noted are these: ABTL0812 oral 120 mg/kg/day; Bevacizumab ip 100 μg/dose every four days. How it is done:
Methods: Mice were injected with 4×10^6 Ishikawa cells in one flank to induce tumor formation. […] Bevacizumab was administered ip at 100 μg/dose, every four days up to four administration. Tumor volume and body weight were monitored 3 times a week.

Read-outs that look alike come from different tables or passages of the source.

For `CC(C)C[C@H](NC(=O)[C@H](Cc1ccccc1)NC(=O)c1cnccn1)B(O)O` [Bortezomib, reference compound], the cell death with JJN-3 cells is roughly 15%; with OPM2 cells, “around 10%”.
For `COc1cccc2c1C(=O)c1c(O)c3c(c(O)c1C2=O)C[C@@](O)(C(=O)CO)C[C@@H]3O[C@H]1C[C@H](N)[C@H](O)[C@H](C)O1` [doxorubicin, reference compound], the tumor volume entry with Ishikawa cells [1] is reported as “significantly reduced tumor volume”.
For `O=C(c1cc(Cc2n[nH]c(=O)c3ccccc23)ccc1F)N1CCN(C(=O)C2CC2)CC1` [olaparib, reference compound], the tumor volume entry in the assay with Ishikawa cells [2] was “significantly reduced tumor volume”.
With “IFNγ: well described master regulator of PDL1 expression [reference compound]”, the PDL1 levels entry with PDL1 was “significantly higher levels of PDL1 compared with ABTL0812”.
As to bevacizumab [reference compound], the tumor volume entry with Ishikawa cells [3] is given as “significantly reduced tumor volume”.
